From patent publication US20240217930A1 (priority 2021, published 2024)

Molecular target: SARS-CoV-2 Mpro (Severe acute respiratory syndrome coronavirus 2, UniProt P0DTD1)
Assay: SARS-CoV-2 Mpro FRET-based enzyme assay
Assay type: biochemical
Details: 5 nM Mpro, 25 μM FRET substrate, 20 min preincubation at room temperature; mean n=2; read-out: SARS-CoV-2 Mpro enzyme pKi assay pKi (converted)

| Compound | Ki [µM] |
| --- | --- |
| CC(C)C(=O)N[C@H](C(=O)N1C[C@H]2[C@@H]([C@H]1C(=O)NC(CC1CC1)C(=O)C(N)=O)C2(C)C)C(C)(C)C (stereo partly drawn) [Example 1, (1 R,2S,5S)—N-(4-Amino-1-cyclopropyl-3,4-dioxobutan-2-yl)-3-((S)-2-isobutyramido-3,3-dimethylbutanoyl)-6,6-dimethyl-3-azabicyclo[3.1.0]hexane-2-carboxamide] | 0.0158 |
| CC(C)[C@H](NC(=O)C1CC1)C(=O)N1C[C@H]2[C@@H]([C@H]1C(=O)NC(CC1CC1)C(=O)C(N)=O)C2(C)C (stereo partly drawn) [Example 2, (1 R,2S,5S)—N-[3-Amino-1-(cyclopropylmethyl)-2,3-dioxo-propyl]-3-[(2S)-2-(cyclopropanecarbonylamino)-3-methylbutanoyl]-6,6-dimethyl-3-azabicyclo[3.1.0]hexane-2-carboxamide] | 0.0501 |
| CC[C@@H](C)[C@H](NC(=O)C(C)C)C(=O)N1C[C@H]2[C@@H]([C@H]1C(=O)NC(CC1CC1)C(=O)C(N)=O)C2(C)C (stereo partly drawn) [Example 3, (1R,2S,5S)—N-(4-Amino-1-cyclopropyl-3,4-dioxobutan-2-yl)-3-(isobutyryl-L-alloisoleucyl)-6,6-dimethyl-3-azabicyclo[3.1.0]hexane-2-carboxamide] | 0.0794 |
| C=CC(=O)N[C@H](C(=O)N1C[C@H]2[C@@H]([C@H]1C(=O)NC(CC1CC1)C(=O)C(N)=O)C2(C)C)C(C)C (stereo partly drawn) [Example 4, (1 R,2S,5S)-3-(Acryloyl-L-valyl)-N-(4-amino-1-cyclopropyl-3,4-dioxobutan-2-yl)-6,6-dimethyl-3-azabicyclo[3.1.0]hexane-2-carboxamide] | 0.0501 |
| CC(C)C(=O)N[C@H](C(=O)N1C[C@H]2[C@@H]([C@H]1C(=O)NC(C[C@H]1C[C@@H]1C)C(=O)C(N)=O)C2(C)C)C(C)C (stereo partly drawn) [Example 5, (1 R,2S,5S)—N-(4-Amino-1-((1 R,2S)-2-methylcyclopropyl)-3,4-dioxobutan-2-yl)-3-(isobutyryl-L-valyl)-6,6-dimethyl-3-azabicyclo[3.1.0]hexane-2-carboxamide] | 0.158 |
| CC(C)C(=O)N[C@@H](CC1CC1)C(=O)N1C[C@H]2[C@@H]([C@H]1C(=O)NC(CC1CC1)C(=O)C(N)=O)C2(C)C (stereo partly drawn) [Example 6, (1 R,2S,5S)—N-(4-Amino-1-cyclopropyl-3,4-dioxobutan-2-yl)-3-((S)-3-cyclopropyl-2-isobutyramidopropanoyl)-6,6-dimethyl-3-azabicyclo[3.1.0]hexane-2-carboxamide] | 0.2 |
| CC(C)C(=O)N[C@H](C(=O)N1C[C@H]2[C@@H]([C@H]1C(=O)NC(CC1CC1)C(=O)C(N)=O)C2(C)C)C(C)C (stereo partly drawn) [Example 7, (1 R,2S,5S)—N-(4-Amino-1-cyclopropyl-3,4-dioxobutan-2-yl)-3-(isobutyryl-L-valyl)-6,6-dimethyl-3-azabicyclo[3.1.0]hexane-2-carboxamide] | 0.2 |
| CC1(C)[C@@H]2[C@@H](C(=O)NC(CC3CC3)C(=O)C(N)=O)N(C(=O)[C@@H](NC(=O)C3CC3)C3CC3)C[C@@H]21 (stereo partly drawn) [Example 9, (1 R,2S,5S)—N-(4-Amino-1-cyclopropyl-3,4-dioxobutan-2-yl)-3-((S)-2-(cyclopropanecarboxamido)-2-cyclopropylacetyl)-6,6-dimethyl-3-azabicyclo[3.1.0]hexane-2-carboxamide] | 0.316 |
| CC(C)C(=O)N[C@H](C(=O)N1C[C@H]2[C@@H]([C@H]1C(=O)NC(CC1CC1)C(=O)C(N)=O)C2(C)C)C1CC1 (stereo partly drawn) [Example 10, (1 R,2S,5S)—N-(4-Amino-1-cyclopropyl-3,4-dioxobutan-2-yl)-3-((S)-2-cyclopropyl-2-isobutyramidoacetyl)-6,6-dimethyl-3-azabicyclo[3.1.0]hexane-2-carboxamide] | 0.316 |
| CC(C)C(=O)NC(C(=O)N1C[C@H]2[C@@H]([C@H]1C(=O)NC(CC1CC1)C(=O)C(N)=O)C2(C)C)C1COC1 (stereo partly drawn) [Example 13, (1 R,2S,5S)—N-(4-Amino-1-cyclopropyl-3,4-dioxobutan-2-yl)-3-(2-isobutyramido-2-(oxetan-3-yl)acetyl)-6,6-dimethyl-3-azabicyclo[3.1.0]hexane-2-carboxamide] | 0.316 |
| CC(C)(C)[C@H](NC(=O)C1CC1)C(=O)N1C[C@H]2[C@@H]([C@H]1C(=O)NC(CC1CC1)C(=O)C(N)=O)C2(C)C (stereo partly drawn) [Example 14, (1 R,2S,5S)—N-(4-Amino-1-cyclopropyl-3,4-dioxobutan-2-yl)-3-((S)-2-(cyclopropanecarboxamido)-3,3-dimethylbutanoyl)-6,6-dimethyl-3-azabicyclo[3.1.0]hexane-2-carboxamide] | 0.0158 |
| C=CC(=O)N[C@H](C(=O)N1C[C@H]2[C@@H]([C@H]1C(=O)NC(CC1CC1)C(=O)C(N)=O)C2(C)C)C(C)(C)C (stereo partly drawn) [Example 15, (1 R,2S,5S)-3-((S)-2-Acrylamido-3,3-dimethylbutanoyl)-N-(4-amino-1-cyclopropyl-3,4-dioxobutan-2-yl)-6,6-dimethyl-3-azabicyclo[3.1.0]hexane-2-carboxamide] | 0.00398 |
| CC(C)(C)[C@H](NC(=O)C1CC1)C(=O)N1C[C@H]2[C@@H]([C@H]1C(=O)NC(CC1CC1)C(=O)C(=O)NCc1ccccc1)C2(C)C (stereo partly drawn) [Example 18, (1 R,2S,5S)—N-(4-(Benzylamino)-1-cyclopropyl-3,4-dioxobutan-2-yl)-3-((S)-2-(cyclopropanecarboxamido)-3,3-dimethylbutanoyl)-6,6-dimethyl-3-azabicyclo[3.1.0]hexane-2-carboxamide] | 0.0501 |
| CC(C)(C)[C@H](NC(=O)C1CC1)C(=O)N1C[C@H]2[C@@H]([C@H]1C(=O)NC(CC1CC1)C(=O)C(=O)NC1CC1)C2(C)C (stereo partly drawn) [Example 19, (1 R,2S,5S)-3-((S)-2-(Cyclopropanecarboxamido)-3,3-dimethylbutanoyl)-N-(1-cyclopropyl-4-(cyclopropylamino)-3,4-dioxobutan-2-yl)-6,6-dimethyl-3-azabicyclo[3.1.0]hexane-2-carboxamide] | 0.0501 |
| CNC(=O)C(=O)C(CC1CC1)NC(=O)[C@@H]1[C@@H]2[C@H](CN1C(=O)[C@@H](NC(=O)C(C)C)C(C)(C)C)C2(C)C (stereo partly drawn) [Example 22, (1 R,2S,5S)—N-(1-Cyclopropyl-4-(methylamino)-3,4-dioxobutan-2-yl)-3-((S)-2-isobutyramido-3,3-dimethylbutanoyl)-6,6-dimethyl-3-azabicyclo[3.1.0]hexane-2-carboxamide] | 0.0158 |
| CC(C)C(=O)N[C@H](C(=O)N1C[C@H]2[C@@H]([C@H]1C(=O)NC(CC1CC1)C(=O)C(=O)N(C)C)C2(C)C)C(C)(C)C (stereo partly drawn) [Example 23, (1 R,2S,5S)—N-(1-Cyclopropyl-4-(dimethylamino)-3,4-dioxobutan-2-yl)-3-((S)-2-isobutyramido-3,3-dimethylbutanoyl)-6,6-dimethyl-3-azabicyclo[3.1.0]hexane-2-carboxamide] | > 5.01 |
| CC(C)C(=O)N[C@H](C(=O)N1C[C@H]2[C@@H]([C@H]1C(=O)NC(CC1CC1)C(=O)C(N)=O)C2(C)C)C1CCC1 (stereo partly drawn) [Example 25, (1 R,2S,5S)—N-(4-Amino-1-cyclopropyl-3,4-dioxobutan-2-yl)-3-((S)-2-cyclobutyl-2-isobutyramidoacetyl)-6,6-dimethyl-3-azabicyclo[3.1.0]hexane-2-carboxamide] | 0.251 |
| CC(C)C(=O)N[C@H](C(=O)N1C[C@H]2[C@@H]([C@H]1C(=O)NC(C#N)CC1CC1)C2(C)C)C(C)(C)C (stereo partly drawn) [Example 27, (1 R,2S,5S)—N-(1-Cyano-2-cyclopropylethyl)-3-((S)-2-isobutyramido-3,3-dimethylbutanoyl)-6,6-dimethyl-3-azabicyclo[3.1.0]hexane-2-carboxamide] | > 5.01 |
| CC(C)[C@H](NC(=O)C1CC1)C(=O)N1C[C@H]2[C@@H]([C@H]1C(=O)NC(CC1CC1)C(=O)C(=O)NC1CC1)C2(C)C (stereo partly drawn) [Example 29, (1 R,2S,5S)-3-((Cyclopropanecarbonyl)-L-valyl)-N-(1-cyclopropyl-4-(cyclopropylamino)-3,4-dioxobutan-2-yl)-6,6-dimethyl-3-azabicyclo[3.1.0]hexane-2-carboxamide] | 0.251 |
| CC(C)C(=O)NC(C(=O)N1C[C@H]2[C@@H]([C@H]1C(=O)NC(CC1CC1)C(=O)C(N)=O)C2(C)C)C1CCOC1 (stereo partly drawn) [Example 30, (1 R,2S,5S)—N-(4-Amino-1-cyclopropyl-3,4-dioxobutan-2-yl)-3-(2-isobutyramido-2-(tetrahydrofuran-3-yl)acetyl)-6,6-dimethyl-3-azabicyclo[3.1.0]hexane-2-carboxamide] | 0.158 |
| CC(C)C(=O)N[C@H](C(=O)N1C[C@H]2[C@@H]([C@H]1C(=O)NC(CC1CC1)C(=O)C(=O)N[C@H]1CC1(C)C)C2(C)C)C(C)(C)C (stereo partly drawn) [Example 31, (1 R,2S,5S)—N-(1-Cyclopropyl-4-(((S)-2,2-dimethylcyclopropyl)amino)-3,4-dioxobutan-2-yl)-3-((S)-2-isobutyramido-3,3-dimethylbutanoyl)-6,6-dimethyl-3-azabicyclo[3.1.0]hexane-2-carboxamide] | 0.1 |
| CC(C)(C)[C@H](NC(=O)C(C(F)(F)F)C(F)(F)F)C(=O)N1C[C@H]2[C@@H]([C@H]1C(=O)NC(CC1CC1)C(=O)C(N)=O)C2(C)C (stereo partly drawn) [Example 33, (1 R,2S,5S)—N-(4-Amino-1-cyclopropyl-3,4-dioxobutan-2-yl)-3-((S)-3,3-dimethyl-2-(3,3,3-trifluoro-2-(trifluoromethyl)propanamido)butanoyl)-6,6-dimethyl-3-azabicyclo[3.1.0]hexane-2-carboxamide] | 0.158 |
